Measurements: patent USRE48461E1, “Modulation of androgen receptor expression” (Ionis Pharmaceuticals, Inc., priority 2012, dated 2021)
pIC50: −log10 of the molar value. Oligonucleotides are written 5' to 3', each unit as a sugar letter and its base; * is a phosphorothioate linkage, no mark a phosphodiester; rarer units and linkages stand in square brackets, end groups in braces. Plain capitals give the bases only. e = 2'-O-(2-methoxyethyl) (MOE); k = constrained ethyl (cEt); [5mC] = 5-methylcytosine; d = 2'-deoxy (DNA)

Legend:
AR mRNA [1] = test: Antisense inhibition of human AR in HuVEC cells, single concentration (electroporation, qRT-PCR RTS3559); format: cell-based
Procedure, shortened: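 AR mRNA levels were measured with human primer-probe set RTS3559 and adjusted for total RNA (RIBOGREEN). Cells were HuVEC, with each antisense oligonucleotide delivered by electroporation at one concentration.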

AR mRNA [2] = test: Dose-dependent antisense inhibition of human AR in HuVEC cells (electroporation, qRT-PCR RTS3559, IC50); format: cell-based; settings: HuVEC
Procedure, shortened: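 HuVEC cells dosed with antisense oligonucleotides by electroporation and treated approximately 16 hours. AR mRNA quantified by real-time qPCR with primer probe set RTS3559 and normalised to total RNA by RIBOGREEN; IC50 from dose-response.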

[3] = 500 nM ASO, electroporation, ~24 h, Table 1
[4] = Table 34, electroporation, approximately 16 hours
[5] = Table 29, electroporation, approximately 16 hours
[6] = Table 20, 500 nM oligonucleotide, electroporation, approximately 24 hours, relative to untreated control
[7] = Table 33, electroporation, approximately 16 hours
[8] = Table 31, electroporation, approximately 16 hours

With “549334 (k[5mC]*kA*k[5mC]*d[5mC]*dT*dG*d[5mC]*dG*dG*dG*dA*dA*dG*k[5mC]*kT*k[5mC]; antisense) [compound 549334]” the “% inhibition” value (AR mRNA [1]; [3]) was 83%, the “percent inhibition of AR” value (AR mRNA [2]; 55.6 nM, ~16 h, Table 4) was 29% and the “percent inhibition of AR” value (AR mRNA [2]; 166.7 nM, ~16 h, Table 4) was 46%. The “percent inhibition of AR” value (AR mRNA [2]; 500.0 nM, ~16 h, Table 4) was 63%, the “percent inhibition of AR” value (AR mRNA [2]; 1500.0 nM, ~16 h, Table 4) was 72% and the pIC50 (AR mRNA [2]; ~16 h, Table 4) was 6.60.
With “583990 (kA*k[5mC]*kA*d[5mC]*dA*dT*d[5mC]*dA*dG*dG*dT*dG*d[5mC]*kG*kG*kT; antisense) [compound 583990]” the “% inhibition” value (AR mRNA [1]; Table 22, 500 nM oligonucleotide, electroporation, approximately 24 hours, relative to untreated control) was 30%, the “percent inhibition of AR, 46.9 nM” value (AR mRNA [2]; [4]) was 0% and the “percent inhibition of AR, 187.5 nM” value (AR mRNA [2]; [4]) was 9%. The “percent inhibition of AR, 750.0 nM” value (AR mRNA [2]; [4]) was 33%, the “percent inhibition of AR, 3000.0 nM” value (AR mRNA [2]; [4]) was 56% and the pIC50 (AR mRNA [2]; [4]) was 5.72.
In the case of “583559 (antisense kA*kG*kT*d[5mC]*dT*dT*dT*dA*dG*d[5mC]*dA*dG*d[5mC]*kT*kT*kT) [compound 583559]”, the “% inhibition” value (AR mRNA [1]; 500 nM ASO, ~24 h, Table 16) was 52%, the “percent inhibition of AR, 46.9 nM” value (AR mRNA [2]; [5]) was 30% and the “percent inhibition of AR, 187.5 nM” value (AR mRNA [2]; [5]) was 49%. The “percent inhibition of AR, 750.0 nM” value (AR mRNA [2]; [5]) was 63%, the “percent inhibition of AR, 3000.0 nM” value (AR mRNA [2]; [5]) was 80% and the pIC50 (AR mRNA [2]; [5]) was 6.66.
In the case of “583866 (kT*k[5mC]*kT*dT*d[5mC]*dA*dG*dT*dG*d[5mC]*dT*d[5mC]*dT*kT*kG*k[5mC]; antisense) [compound 583866]”, the “% inhibition” value (AR mRNA [1]; [6]) was 32%, the “percent inhibition of AR, 46.9 nM” value (AR mRNA [2]; [7]) was 17% and the “percent inhibition of AR, 187.5 nM” value (AR mRNA [2]; [7]) was 48%. For the same substance, the “percent inhibition of AR, 750.0 nM” value (AR mRNA [2]; [7]) was 71%, the “percent inhibition of AR, 3000.0 nM” value (AR mRNA [2]; [7]) was 91% and the pIC50 (AR mRNA [2]; [7]) was 6.62.
For “569238 (antisense eG*kT*kT*kG*dA*dT*dT*dT*dA*dA*dT*kG*kG*kT*eT*eG) [compound 569238]”, the “% inhibition” value (AR mRNA [1]; 1,000 nM ASO, ~24 h, Table 13) was 51%, the “percent inhibition of AR” value (AR mRNA [2]; 31.25 nM, ~16 h, Table 14) was 4% and the “percent inhibition of AR” value (AR mRNA [2]; 62.5 nM, ~16 h, Table 14) was 32%. The “percent inhibition of AR” value (AR mRNA [2]; 125.0 nM, ~16 h, Table 14) was 33%, the “percent inhibition of AR” value (AR mRNA [2]; 500.0 nM, ~16 h, Table 14) was 71% and the “percent inhibition of AR” value (AR mRNA [2]; 1000.0 nM, ~16 h, Table 14) was 88%. The pIC50 (AR mRNA [2]; ~16 h, Table 14) was 6.69.
In the case of “583662 (antisense kA*kG*kA*dA*dG*dA*d[5mC]*dA*d[5mC]*dA*d[5mC]*dG*dG*kT*kG*kG) [compound 583662]”, the “% inhibition” value (AR mRNA [1]; 500 nM ASO, ~24 h, Table 17) was 51%, the “percent inhibition of AR, 46.9 nM” value (AR mRNA [2]; [5]) was 27% and the “percent inhibition of AR, 187.5 nM” value (AR mRNA [2]; [5]) was 59%. For the same substance, the “percent inhibition of AR, 750.0 nM” value (AR mRNA [2]; [5]) was 75%, the “percent inhibition of AR, 3000.0 nM” value (AR mRNA [2]; [5]) was 75% and the pIC50 (AR mRNA [2]; [5]) was 6.82.
In the case of “583799 (antisense kT*kG*k[5mC]*d[5mC]*dT*dT*d[5mC]*dG*dG*dA*dT*dA*d[5mC]*kT*kG*k[5mC]) [compound 583799]”, the “% inhibition” value (AR mRNA [1]; Table 19, 500 nM oligonucleotide, electroporation, approximately 24 hours, relative to untreated control) was 65%, the “percent inhibition of AR, 46.9 nM” value (AR mRNA [2]; [8]) was 29% and the “percent inhibition of AR, 187.5 nM” value (AR mRNA [2]; [8]) was 60%. For the same substance, the “percent inhibition of AR, 750.0 nM” value (AR mRNA [2]; [8]) was 76%, the “percent inhibition of AR, 3000.0 nM” value (AR mRNA [2]; [8]) was 85% and the pIC50 (AR mRNA [2]; [8]) was 6.85.
In the case of “549360 (kG*kG*kT*d[5mC]*dG*dA*dA*dG*dT*dG*d[5mC]*d[5mC]*d[5mC]*k[5mC]*k[5mC]*kT; antisense) [compound 549360]”, the “% inhibition” value (AR mRNA [1]; [3]) was 89%, the “percent inhibition of AR” value (AR mRNA [2]; 55.6 nM, ~16 h, Table 3) was 44% and the “percent inhibition of AR” value (AR mRNA [2]; 166.7 nM, ~16 h, Table 3) was 58%. For the same substance, the “percent inhibition of AR” value (AR mRNA [2]; 500.0 nM, ~16 h, Table 3) was 79%, the “percent inhibition of AR” value (AR mRNA [2]; 1500.0 nM, ~16 h, Table 3) was 83% and the pIC50 (AR mRNA [2]; ~16 h, Table 3) was 6.94.
For “583868 (kA*k[5mC]*kT*d[5mC]*dA*dG*d[5mC]*dA*dG*dT*dA*dT*d[5mC]*kT*kT*k[5mC]; antisense) [compound 583868]”, the “% inhibition” value (AR mRNA [1]; [6]) was 34%, the “percent inhibition of AR, 46.9 nM” value (AR mRNA [2]; [7]) was 19% and the “percent inhibition of AR, 187.5 nM” value (AR mRNA [2]; [7]) was 31%. The “percent inhibition of AR, 750.0 nM” value (AR mRNA [2]; [7]) was 59%, the “percent inhibition of AR, 3000.0 nM” value (AR mRNA [2]; [7]) was 81% and the pIC50 (AR mRNA [2]; [7]) was 6.39.
